± gives the standard deviation of the averaged measurements.
Tests used:
Conditions in all cases: 24 h
U-2 OS [1] = experiment: cell viability (CellTiter-Glo) relative to DMSO (% of control); higher = more viable
Protocol: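 Cell viability of U-2 OS cells by CellTiter-Glo after 24 h compound treatment at 5, 10 and 20 uM (some at 40 and 80 uM), measured in parallel with the glutathione assay, as percent of DMSO control. Five technical replicate plates, averaged.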

U-2 OS [2] = experiment: intracellular GSH:GSSG ratio (calculated); higher = more reduced glutathione pool
Protocol: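 Intracellular glutathione in U-2 OS cells after 24 h compound treatment at 5, 10 and 20 uM (some at 40 and 80 uM). Total glutathione and GSSG were measured with the GSH/GSSG-Glo kit, and the GSH:GSSG ratio was calculated. Mean of five technical replicate plates.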

U-2 OS [3] = experiment: relative cell count vs DMSO (cell painting) (fraction of DMSO control); higher = more cells remaining (less cytotoxic)
Procedure, shortened: (§1)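 Using 384-well plates holding about 1,500 U-2 OS cells per well, treatment was applied by pin tool for 24 h at 37 °C, generally at six 2-fold concentrations ranging from 20 μM to 625 nM. Staining with MitoTracker, concanavalin A, phalloidin, wheat germ agglutinin, Hoechst and SYTO 14 preceded Opera Phenix imaging and CellProfiler feature extraction against DMSO cells on the same plate. Activity score and cell count are both referenced to DMSO wells, the former as a Mahalanobis distance. Four replicate plates were averaged for every value.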

U-2 OS [4] = experiment: cell painting activity score (Mahalanobis distance from DMSO wells); higher = stronger morphological phenotype
Procedure, shortened: as §1

U-2 OS [5] = experiment: total intracellular glutathione (GSH + GSSG) relative to DMSO (% of control); higher = more glutathione
Protocol: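 Total intracellular glutathione (GSH + GSSG) in U-2 OS cells by GSH/GSSG-Glo after 24 h compound treatment at 5, 10 and 20 uM (some at 40 and 80 uM), as percent of DMSO control. Five technical replicate plates, averaged.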

SMILES | cell viability (U-2 OS [1]; 5 µM) | cell viability (U-2 OS [1]; 10 µM) | cell viability (U-2 OS [1]; 20 µM) | intracellular GSH:GSSG ratio (U-2 OS [2]; 5 µM) | intracellular GSH:GSSG ratio (U-2 OS [2]; 10 µM) | intracellular GSH:GSSG ratio (U-2 OS [2]; 20 µM) | relative cell count (U-2 OS [3]; 0.625 µM) | relative cell count (U-2 OS [3]; 1.25 µM) | relative cell count (U-2 OS [3]; 2.5 µM) | relative cell count (U-2 OS [3]; 5 µM) | relative cell count (U-2 OS [3]; 10 µM) | relative cell count (U-2 OS [3]; 20 µM) | cell painting activity score (U-2 OS [4]; 0.625 µM) | cell painting activity score (U-2 OS [4]; 1.25 µM) | cell painting activity score (U-2 OS [4]; 2.5 µM) | cell painting activity score (U-2 OS [4]; 5 µM) | cell painting activity score (U-2 OS [4]; 10 µM) | cell painting activity score (U-2 OS [4]; 20 µM) | total intracellular glutathione (U-2 OS [5]; 5 µM) | total intracellular glutathione (U-2 OS [5]; 10 µM) | total intracellular glutathione (U-2 OS [5]; 20 µM) | cell viability (U-2 OS [1]; 40 µM) | cell viability (U-2 OS [1]; 80 µM) | intracellular GSH:GSSG ratio (U-2 OS [2]; 40 µM) | intracellular GSH:GSSG ratio (U-2 OS [2]; 80 µM) | total intracellular glutathione (U-2 OS [5]; 40 µM) | total intracellular glutathione (U-2 OS [5]; 80 µM)
O=[N+]([O-])c1c(Sc2ncnc3nc[nH]c23)cc(Cl)c2nsnc12 | 41.6 ± 9.6 | 5.86 ± 1.9 | 12 ± 2.9 | 9.07 | 1.18 | 2.18 | 0.924 | 0.936 | 0.903 | 0.912 | 0.96 | 0.913 | 3.42 | 4.43 | 4.96 | 4.68 | 3.76 | 3.8 | 74 ± 19 | 32.4 ± 4.7 | 43.3 ± 3.9 |  |  |  |  |  | 
COc1ccc(C[C@H](N)C(=O)N[C@H]2[C@@H](O)[C@H](n3cnc4c(N(C)C)ncnc43)O[C@@H]2CO)cc1 | 10.2 ± 1.6 | 2.46 ± 0.44 | 1.28 ± 0.26 | 3.09 | 1.12 |  | 1.04 | 0.891 | 0.637 | 0.283 | 0.157 | 0.0622 | 13.8 | 17.7 | 20.2 | 25.3 | 32.9 | 33.9 | 12.5 ± 1.3 | 4.88 ± 0.7 | 4.55 ± 0.68 |  |  |  |  |  | 
C=CC(=O)Nc1cc2c(Nc3ccc(F)c(Cl)c3)ncnc2cc1OC | 93.5 ± 3.4 | 91.9 ± 1.7 | 86.5 ± 2.2 | 19.9 | 24.8 | 20.5 | 1.02 | 1.06 | 1.05 | 0.989 | 1 | 0.992 | 5.64 | 6.77 | 6.2 | 7.6 | 7.34 | 7.33 | 99.7 ± 5.3 | 96.6 ± 3.8 | 94.5 ± 4.3 |  |  |  |  |  | 
NC1CS(=O)(=O)c2ccccc21 (stereo unspecified) | 56.6 ± 6.3 | 58 ± 7.3 | 56.7 ± 7.8 | 3.24 |  |  | 0.986 | 1.06 | 1.06 | 1.07 | 1.06 | 1.04 | 4.42 | 4.19 | 4.72 | 3.88 | 3.43 | 4.56 | 51.9 ± 5.3 | 51.6 ± 4.8 | 45.5 ± 3.2 |  |  |  |  |  | 
CC1=NN(c2ccc(C(=O)O)cc2)C(=O)/C1=C\c1ccc(-c2cc(C)c(C)cc2[N+](=O)[O-])o1 | 91.3 ± 6.4 | 91.1 ± 2.4 | 96.4 ± 7.8 | 27.1 | 21.9 | 23.1 | 0.893 | 0.944 | 0.894 | 0.904 | 0.854 | 0.787 | 5.05 | 4.06 | 4.65 | 6.01 | 14.4 | 15 | 96 ± 2.5 | 105 ± 3.6 | 101 ± 4 | 107 ± 8.1 | 90.6 ± 5.9 | 20 | 18.3 | 102 ± 7.7 | 102 ± 5.6
CC1=C(CO)C(=O)O[C@H](C(C)[C@H]2CC[C@@H]3[C@H]4C[C@H]5O[C@@]56[C@@H](O)C=CC(=O)[C@@]6(C)C4CC[C@@]23C)C1 (stereo partly specified) | 55.7 ± 8.4 | 42.7 ± 2 | 59.4 ± 12 | 1.55 | 4.28 | 0.143 | 0.988 | 0.352 | 0.402 | 0.38 | 0.146 | 0.0181 | 10.3 | 16.1 | 17.1 | 17.6 | 29 | 20.3 | 43.6 ± 5.1 | 39.2 ± 4.1 | 32.8 ± 3.3 |  |  |  |  |  | 
O=C1CC(Sc2nnnn2-c2ccccc2)C(=O)N1c1ccc([N+](=O)[O-])cc1 (stereo unspecified) | 102 ± 5.5 | 104 ± 5.8 | 46.2 ± 11 | 26 | 17 | 7.14 | 1.06 | 1.07 | 1.12 | 1.01 | 0.828 | 0.677 | 4.41 | 4.65 | 4.9 | 6.88 | 12.5 | 18.1 | 117 ± 6.5 | 122 ± 5.5 | 61.8 ± 13 |  |  |  |  |  | 
O=S1(=O)CC(SCc2ccccc2)c2ccccc21 (stereo unspecified) | 107 ± 2.6 | 104 ± 5.2 | 97.8 ± 5.9 | 30.3 | 20.1 | 26.3 | 1.13 | 1.12 | 1.06 | 1.07 | 1.14 | 1.12 | 4.11 | 4.32 | 4.24 | 4.29 | 3.77 | 3.73 | 105 ± 2.7 | 98.7 ± 6.5 | 106 ± 6.4 |  |  |  |  |  | 

Source: the supplement of paper PMC10011410
